# From patent US6500830B1, “Conversion of modification D to modification A of doxazosin mesylate” (Knoll Aktiengesellschaft, priority 1998, dated 2002)
# Counter-ions that a name gives are not always drawn.
# Assay: Dissolution of doxazosin mesylate in recrystallisation solvents
# Assay type: physicochemical
# Excerpt: Although doxazosin is mostly used as monomesylate, the preparation of this salt has not to date been described. […] The product isolated after cooling the suspension contains chloroform, which is a solvent which is objectionable from the toxicological viewpoint and which can be removed only with difficulty and not without adverse effects on the active ingredient. […] In addition, the yield is poor and the material proves to be X-ray amorphous. […] Hot filtration of the suspension affords a small yield of the described ethanol modification A as residue on the filter. Cooling the filtrate results in only a moderate yield of impure A modification.
compound,measurement,setting,value
"COc1cc2nc(N3CCN(C(=O)C4COc5ccccc5O4)CC3)nc(N)c2cc1OC (stereo not drawn) [doxazosin mesylate, 4-amino-2-[4-(1,4-benzodioxane-2-carbonyl)piperazin-1-yl]-6,7-dimethoxyquinazoline]",solubility in chloroform,75 times the amount of chloroform at the boiling point,does not dissolve
same,solubility in ethanol,350 times the amount of ethanol at the boiling point of the solvent,does not dissolve
same,solubility in water,"water, compared with chloroform",dissolves better in water
